In the experiment the target is T1, total YAP (Homo sapiens, UniProt P46937).
T1 construct: endogenous in cells; host or cells: LN229
The experiment in a line: Total YAP ELISA in GBM cells. In kind it is cell-based. Here is the method:
Levels of total YAP were determined via ELISA. […] Immunoprecipitates were immunoblotted for the indicated proteins. […] Cells were treated with the indicated concentrations of inhibitor for 18 h and mRNA extracted for real time RT-PCR analyses. Measurements were performed in quadruplicate and means and+S.D. are shown. […] Cells were treated with (+) or without (−) NSC682769 (100 nM, 18 h) and harvested and separated into cytoplasmic and nuclear cellular fractions. Cytoplasmic versus nuclear material was subsequently immunoblotted for the indicated proteins. […] Values in top right corner of panels correspond to the percentage of nuclear localized YAP. Cells were grown on coverslips and treated with NSC682769. Cells were permeabilized and stained using primary antibody to YAP1 and FITC-conjugated secondary. Nuclei were stained with DAPI. Scale bar, 20 μm.
Surface plasmon resonance (SPR), ELISA, YAP-TEAD reporter activity, cellular fractionation, and immunofluorescence analyses. SPR experiments were carried out on a Nicoya OpenSPR™ instrument using immobilized YAP on a carboxyl-coated sensor. Binding was observed as the change in response units (RU) as analyte was injected at a flow rate of 10 μl/min at 25° C. TraceDrawer™ was used for kinetic analyses. The PathScan® total-YAP ELISA kit was obtained from Cell Signaling and used according to the manufacturer's instructions. YAP-TEAD reporter activity was determined as previously described (Kim N G, Gumbiner B M (2015) J Cell Biol 210: 503-515). HOP-flash contains multiple copies of wild-type TEAD-binding sites with a minimal promoter upstream of a luciferase reporter gene. Luciferase activity was measured via a luciferase assay system (Promega). Nuclear-cytoplasmic fractionation was performed according to Dignam et al. (Dignam J D, et al. (1983) Nucleic Acids Res 11: 1475-1489). Briefly, the buffers used were kept on ice and centrifugations were done at 4° C. with soft braking. After a single wash with PBS, cells were scraped with PBS (containing 1 mM DTT and 1× protease inhibitor) and harvested by centrifugation at 1000×g for 15 min. The cell pellet was gently resuspended with five times the volume of pellet with buffer A (10 mM HEPES, pH 7.9, 1.5 mM MgCl2, 10 mM KCl, 0.5 mM DTT, and 1× protease inhibitor) and incubated on ice for 15 min, followed by homogenization (Wheaton). Cell lysis was monitored by trypan blue staining. The cell lysate was spun at 1000×g for 5 min to collect the pellet as the nuclear fraction and the supernatant as the cytoplasmic fraction. […]
Background: ELISA stands for enzyme-linked immunosorbent assay.

Each structure is given as a SMILES string. Read-outs that look alike come from different tables or passages of the source.

T1 sequence (P46937 whole entry): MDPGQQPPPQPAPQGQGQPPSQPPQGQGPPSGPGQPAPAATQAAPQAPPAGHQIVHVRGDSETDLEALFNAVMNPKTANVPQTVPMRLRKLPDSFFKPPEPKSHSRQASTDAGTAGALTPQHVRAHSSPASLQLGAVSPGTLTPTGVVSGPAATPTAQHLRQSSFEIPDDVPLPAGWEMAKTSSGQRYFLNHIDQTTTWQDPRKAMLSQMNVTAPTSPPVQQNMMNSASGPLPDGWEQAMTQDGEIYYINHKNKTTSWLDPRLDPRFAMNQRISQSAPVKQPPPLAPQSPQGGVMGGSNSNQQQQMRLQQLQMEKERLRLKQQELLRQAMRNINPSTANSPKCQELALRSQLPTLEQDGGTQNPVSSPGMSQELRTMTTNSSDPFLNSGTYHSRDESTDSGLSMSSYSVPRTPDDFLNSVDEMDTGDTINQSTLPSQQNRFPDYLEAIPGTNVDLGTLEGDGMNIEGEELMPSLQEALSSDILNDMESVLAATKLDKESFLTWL

As to `COc1ccc(-c2cc(-c3ccccc3)nc3c2CC(=O)Nc2ccccc2-3)cc1OC` [NSC682769], the DC50 runs as follows: (GBM39 cells, read-out: IC50, inhibition of total YAP (ELISA)) 5.1 nM; (LN229 cells, read-out: IC50, inhibition of total YAP (ELISA)) 11.8 nM; (LN229 cells, read-out: IC50 for YAP (ELISA)) 11.8 nM; (patient-derived GBM39 cells, read-out: IC50 for YAP (ELISA)) 5.1 nM.

The values above are taken from patent publication US20240108634A1, “COMPOSITIONS AND METHODS FOR INHIBITING YAP” (The United States Government as represented by the …, priority 2021, published 2024).
